For one molecule, LC50 and Activity results are on record in ChEMBL document CHEMBL1154926, “Cyanolide A, a glycosidic macrolide with potent Molluscicidal activity from the Papua New Guinea cyanobacterium Lyngbya bouillonii” (J Nat Prod, 2010).

One data set concerns Biomphalaria glabrata. Put plainly: Molluscicidal activity against Biomphalaria glabrata after 24 hrs. In kind it is functional.
The nature of data set [1]: Toxicity in brine shrimp. The note with it: artemia, in vivo. Format: organism-based.
The next data set has as its system NCI-H460. The data set is described as follows: Cytotoxicity against human H460 cells at 35 uM. In kind it is functional, cell-based.
The subject of the next data set is N2a. Put plainly: Cytotoxicity against mouse Neuro2a cells at 35 uM. Format: functional, cell-based.

As to `CC[C@@H]1C[C@@H]2C[C@H](O[C@@H]3OC[C@@H](OC)[C@H](OC)[C@H]3OC)C(C)(C)[C@H](CC(=O)O[C@H](CC)C[C@@H]3C[C@H](O[C@@H]4OC[C@@H](OC)[C@H](OC)[C@H]4OC)C(C)(C)[C@H](CC(=O)O1)O3)O2` [CYANOLIDE A], the LC50 was 1200 nM in the data set with Biomphalaria glabrata and 10.8 µM in data set [1]. Besides, the Activity entry with NCI-H460 and in the data set on N2a was “Not toxic” each time.

What is called LC50 is the concentration lethal to half of the exposed cells or organisms. Read a high LC50 as a less lethal substance.
